Test results as given in PubChem BioAssay (NCI).
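96-well plates; 48 h exposure; 5 concentrations. Endpoints by linear interpolation between flanking doses. Not reached: highest tested concentration assigned. GI50 marks 50% less growth. Definition used: TGI = concentration required for complete inhibition of growth.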

Legend:
Experiment in all cases: NCI anticancer screen, dose series, 48 h
SW-620 colon = tested on: SW-620 colon
OVCAR-5 ovarian = tested on: OVCAR-5 ovarian
NCI-H23 lung = tested on: NCI-H23 lung
SK-OV-3 ovarian = tested on: SK-OV-3 ovarian
EKVX NSCLC = tested on: EKVX NSCLC
UACC-257 melanoma = tested on: UACC-257 melanoma
OVCAR-3 ovarian = tested on: OVCAR-3 ovarian
SK-MEL-28 melanoma = tested on: SK-MEL-28 melanoma
PC-3 prostate = tested on: PC-3 prostate
MCF7 breast = tested on: MCF7 breast
A549 NSCLC = tested on: A549 NSCLC
M14 melanoma = tested on: M14 melanoma
U251 CNS = tested on: U251 CNS
OVCAR-8 ovarian = tested on: OVCAR-8 ovarian
HCT-116 colon = tested on: HCT-116 colon
SF-295 CNS = tested on: SF-295 CNS
IGROV1 ovarian = tested on: IGROV1 ovarian
HCT-15 colon = tested on: HCT-15 colon
HL-60(TB) leukemia = tested on: HL-60(TB) leukemia
SR leukemia = tested on: SR leukemia
MDA-MB-435 = tested on: MDA-MB-435
KM12 colon = tested on: KM12 colon
NCI-H522 lung = tested on: NCI-H522 lung
SNB-19 CNS = tested on: SNB-19 CNS
SK-MEL-5 melanoma = tested on: SK-MEL-5 melanoma
BT-549 breast = tested on: BT-549 breast
A498 renal = tested on: A498 renal
786-0 renal = tested on: 786-0 renal
NCI-H226 lung = tested on: NCI-H226 lung
HT29 colon = tested on: HT29 colon
RXF 393 renal = tested on: RXF 393 renal
TK-10 renal = tested on: TK-10 renal
SNB-75 CNS = tested on: SNB-75 CNS
RPMI-8226 leukemia = tested on: RPMI-8226 leukemia
HOP-92 NSCLC = tested on: HOP-92 NSCLC
MOLT-4 leukemia = tested on: MOLT-4 leukemia
ACHN renal = tested on: ACHN renal
DU-145 prostate = tested on: DU-145 prostate
NCI/ADR-RES ovarian = tested on: NCI/ADR-RES ovarian
SK-MEL-2 melanoma = tested on: SK-MEL-2 melanoma
LOX IMVI melanoma = tested on: LOX IMVI melanoma
HOP-62 NSCLC = tested on: HOP-62 NSCLC
HS 578T breast = tested on: HS 578T breast
OVCAR-4 ovarian = tested on: OVCAR-4 ovarian
K-562 leukemia = tested on: K-562 leukemia
CAKI-1 renal = tested on: CAKI-1 renal
SF-539 CNS = tested on: SF-539 CNS
SF-268 CNS = tested on: SF-268 CNS

With `CCOC(=O)c1c(-c2ccccc2)[n+](=O)c2cc(F)c(F)cc2n1[O-]` the GI50 (SW-620 colon) was 0.494 µM, the TGI (SW-620 colon) was 3.57 µM and the GI50 (OVCAR-5 ovarian) was 2.23 µM. The TGI (OVCAR-5 ovarian) was 4.13 µM, the GI50 (NCI-H23 lung) was 1.42 µM and the TGI (NCI-H23 lung) was 3.13 µM. For the same compound, the GI50 (SK-OV-3 ovarian) was 2.03 µM, the TGI (SK-OV-3 ovarian) was 3.57 µM and the GI50 (EKVX NSCLC) was 1.73 µM. The TGI (EKVX NSCLC) was 3.47 µM, the GI50 (UACC-257 melanoma) was 2.09 µM and the TGI (UACC-257 melanoma) was 3.88 µM. It also gave a GI50 (OVCAR-3 ovarian) of 1.23 µM, a TGI (OVCAR-3 ovarian) of 2.61 µM and a GI50 (SK-MEL-28 melanoma) of 1.73 µM. It also gave a TGI (SK-MEL-28 melanoma) of 3.34 µM, a GI50 (PC-3 prostate) of 1.65 µM and a TGI (PC-3 prostate) of 3.16 µM. The GI50 (MCF7 breast) was 2.76 µM, the TGI (MCF7 breast) was 10.5 µM and the GI50 (A549 NSCLC) was 2.14 µM. For the same compound, the TGI (A549 NSCLC) was 4.46 µM, the GI50 (M14 melanoma) was 1.11 µM and the TGI (M14 melanoma) was 2.34 µM. It also gave a GI50 (U251 CNS) of 1.25 µM, a TGI (U251 CNS) of 2.71 µM and a GI50 (OVCAR-8 ovarian) of 2.06 µM. It also gave a TGI (OVCAR-8 ovarian) of 4.43 µM, a GI50 (HCT-116 colon) of 0.238 µM and a TGI (HCT-116 colon) of 0.584 µM. The GI50 (SF-295 CNS) was 2.08 µM, the TGI (SF-295 CNS) was 3.84 µM and the GI50 (IGROV1 ovarian) was 0.701 µM. For the same compound, the TGI (IGROV1 ovarian) was > 100 µM, the GI50 (HCT-15 colon) was 0.215 µM and the TGI (HCT-15 colon) was 0.441 µM. For the same compound, the GI50 (HL-60(TB) leukemia) was 0.717 µM, the TGI (HL-60(TB) leukemia) was 3.77 µM and the GI50 (SR leukemia) was 0.187 µM. The TGI (SR leukemia) was > 100 µM, the GI50 (MDA-MB-435) was 1.93 µM and the TGI (MDA-MB-435) was 3.6 µM. The GI50 (KM12 colon) was 2.01 µM, the TGI (KM12 colon) was 9.91 µM and the GI50 (NCI-H522 lung) was 36.5 µM. The TGI (NCI-H522 lung) was > 100 µM, the GI50 (SNB-19 CNS) was 1.95 µM and the TGI (SNB-19 CNS) was 3.45 µM. It also gave a GI50 (SK-MEL-5 melanoma) of 1.53 µM, a TGI (SK-MEL-5 melanoma) of 3.52 µM and a GI50 (BT-549 breast) of 1.6 µM. For the same compound, the TGI (BT-549 breast) was 3.26 µM, the GI50 (A498 renal) was 5.02 µM and the TGI (A498 renal) was 17 µM. The GI50 (786-0 renal) was 2.01 µM, the TGI (786-0 renal) was 3.64 µM and the GI50 (NCI-H226 lung) was 2.73 µM. The TGI (NCI-H226 lung) was 6.92 µM, the GI50 (HT29 colon) was 1.51 µM and the TGI (HT29 colon) was 3.27 µM. The GI50 (RXF 393 renal) was 1.38 µM, the TGI (RXF 393 renal) was 4.1 µM and the GI50 (TK-10 renal) was 16.6 µM. It also gave a TGI (TK-10 renal) of 32 µM, a GI50 (SNB-75 CNS) of 1.75 µM and a TGI (SNB-75 CNS) of 3.64 µM. It also gave a GI50 (RPMI-8226 leukemia) of 1.02 µM, a TGI (RPMI-8226 leukemia) of 3.98 µM and a GI50 (HOP-92 NSCLC) of 1.14 µM. For the same compound, the TGI (HOP-92 NSCLC) was 2.73 µM, the GI50 (MOLT-4 leukemia) was 0.415 µM and the TGI (MOLT-4 leukemia) was > 100 µM. For the same compound, the GI50 (ACHN renal) was 1.38 µM, the TGI (ACHN renal) was 2.8 µM and the GI50 (DU-145 prostate) was 1.78 µM. It also gave a TGI (DU-145 prostate) of 3.55 µM, a GI50 (NCI/ADR-RES ovarian) of 0.924 µM and a TGI (NCI/ADR-RES ovarian) of 2.66 µM. The GI50 (SK-MEL-2 melanoma) was 3.47 µM, the TGI (SK-MEL-2 melanoma) was > 100 µM and the GI50 (LOX IMVI melanoma) was 0.157 µM. For the same compound, the TGI (LOX IMVI melanoma) was 0.298 µM, the GI50 (HOP-62 NSCLC) was 1.42 µM and the TGI (HOP-62 NSCLC) was 3.24 µM. The GI50 (HS 578T breast) was 2.38 µM, the TGI (HS 578T breast) was 6.26 µM and the GI50 (OVCAR-4 ovarian) was 0.624 µM. For the same compound, the TGI (OVCAR-4 ovarian) was 2.16 µM, the GI50 (K-562 leukemia) was 0.702 µM and the TGI (K-562 leukemia) was > 100 µM. The GI50 (CAKI-1 renal) was 1.61 µM, the TGI (CAKI-1 renal) was 3.12 µM and the GI50 (SF-539 CNS) was 1.95 µM. The TGI (SF-539 CNS) was 3.68 µM, the GI50 (SF-268 CNS) was 1.66 µM and the TGI (SF-268 CNS) was 4.07 µM.
